We go through twelve compounds from patent US20100008874A1, “SUBSTITUTED PYRIMIDINES, PROCESS FOR THEIR PRODUCTION AND THEIR USE AS EFFECTIVE ABSORBENTS OF UV IRRADIATION” (YISSUM RESEARCH DEVELOPMENT COMPANY, priority 2006, published 2010).

Data set [1] can be described thus: UV absorption spectrum (spectral properties). It counts as physicochemical. The settings on record: footnote b: this work.
Data set [2] is described as follows: Autoxidation rate in air-saturated phosphate buffer, followed spectrophotometrically. The format is physicochemical. The settings on record: air saturated 0.05M phosphate buffer pH 7.0, 1 mM EDTA, 25° C., [Pyrimidine] = 2.4 × 10^−5 M. Here is the method:
The autoxidation rate was measured in air-saturated buffer phosphate solutions 0.05 M at pH 7 and 25° C. The solutions contained 1 mM EDTA to minimize catalysis of the oxidation by trace metallic cations. The rate of autoxidation was measured spectrophotometrically by following the decrease of the UV absorbance of the pyrimidines at their respective λ max (Table 1).
This is probably the reason why there was no transient appearance of an absorption maximum around 240-255 nm which is assumed to be due to the intermediacy of oxidized pyrimidine B (Scheme 1), and was found in the autoxidation of isouramil, divicine and related systems. The decrease in the absorbance of 8a-c, followed a reasonably pseudo first order reaction in the pyrimidine concentration (the dissolved oxygen concentration was at least 13 times higher). However, it was found (Winterbourn, C. C.; Cowden, W. B.; Sutton, H. Biochem. Pharmacol. 1989, 38, 611-618) that the reaction mechanism is complex and involves radical intermediates and chain reactions and that the dependency on the pyrimidine concentration is far from simple. Therefore, in accordance with the present invention a different approach was adapted that uses the measured initial reaction rates for checking the quantitative dependency of the oxidation rate on the electron releasing power of the substituent in the C2 position. Table 1 also contains the initial rates for the reactions of isouramil and divicine (8d and 8e) calculated from Winterbourn, C. C.; Cowden, W. B.; Sutton, H. Biochem. Pharmacol. 1989, 38, 611-618; (aerated 0.05M phosphate buffer, pH 7, 23° C., 50 nM DTPA and similar to our pyrimidine concentrations) using ΔH of 60.2 kJ/mole (Chevion et al.^5a).

The subject of data set [3] is murine erythroleukemic cells. The conditions noted are these: cited from earlier work.
For data set [4] the following is noted: footnote d: reference; cited from earlier work.
The test system of data set [5] is tumor necrosis factor (TNF). The settings on record: in-vitro and in-vivo; cited from earlier work.
For data set [6] the following is noted: calculated from literature (aerated 0.05M phosphate buffer, pH 7, 23° C., 50 nM DTPA) using ΔH of 60.2 kJ/mole; cited from earlier work.

Read-outs that look alike come from different tables or passages of the source. Marks after values point to notes of the source that are not given here.

Consider `Cc1ncc(OC2CCCCO2)c(=O)[nH]1` (centres unmarked) [5a, 2-Methyl-5-(tetrahydro-2H-pyran-2-yloxy)pyrimidin-4(3H)-one], for which the melting point lay in the range of 149 to 151 °C.
As to `O=c1[nH]c(S)ncc1OC1CCCCO1` (centres unmarked) [5c, 2-Mercapto-5-(tetrahydro-pyran-2-yloxy)-3H-pyrimidin-4-one], the melting point was above 300 °C.
On to `Cc1ncc(O)c(=O)[nH]1` [6a, 5-Hydroxy-2-methylpyrimidin-4(3H)-one], for which the melting point is above 300 °C.
Consider `O=c1[nH]c(S)ncc1O` [6c, 5-Hydroxy-2-mercapto-3H-pyrimidin-4-one], for which the melting point was above 300 °C.
The compound `Cc1nc(N=Nc2ccccc2)c(O)c(=O)[nH]1` [7a, 5-Hydroxy-2-methyl-6-phenylazo-3H-pyrimidin-4-one] came in with a melting point of 243 to 245 °C.
On the same count and under the same terms, the figure for `O=c1[nH]cnc(N=Nc2ccccc2)c1O` [7b, 5-Hydroxy-6-phenylazo-3H-pyrimidine-4-one] is 244 to 245 °C.
Same read-out and setting: the figure for `CSc1nc(N=Nc2ccccc2)c(O)c(=O)[nH]1` [7c, 5-Hydroxy-2-methylsulfanyl-6-phenylazo-3H-pyrimidin-4-one] is 213 to 215 °C.
As for `Cc1nc(N)c(O)c(=O)[nH]1` [CH3, 6-Amino-5-hydroxy-2-methylpyrimidin-4(3H)-one], the melting point was above 300 °C. In data set [1], the “ε at λmax” value is 16200 and the λmax turned out to be 275 nm. Moreover, the “Initial rate (autoxidation)” value in data set [2] is reported as 0.0015^c μM/sec.
`Nc1nc[nH]c(=O)c1O` [H, 6-Amino-5-hydroxypyrimidin-4(3H)-one] displayed a melting point above 300 °C. In data set [1], the “ε at λmax” value came to 13000 and the λmax worked out at 274 nm. In addition, the “Initial rate (autoxidation)” value in data set [2] is reported as 0.00087^c μM/sec.
For `Nc1nc(N)c(O)c(O)n1` [NH2, 2,6-diamino-5-hydroxypyrimidin-4-one], the “cytotoxicity in combination with carboplatin” value in data set [3] was “synergistic cytotoxicity”. In data set [4], the “ε at λmax” value is 9800 and the λmax is on record as 285 nm. Moreover, in data set [5], the “effect on lipopolysaccharide-induced release of TNF” value is “enhances”. The “Initial rate (autoxidation)” value in data set [6] is recorded as 0.061^e μM/sec.
Regarding `Nc1nc(O)[nH]c(=O)c1O` [OH, 6-amino-2,5-dihydroxypyrimidin-4-one], in data set [4], the “ε at λmax” value is given as 14100 and the λmax was 280 nm. Also, the “Initial rate (autoxidation)” value in data set [6] is 0.067^e μM/sec.
On to `CSc1nc(N)c(O)c(=O)[nH]1` [SCH3, 6-Amino-5-hydroxy-2-(methylthio)pyrimidin-4-(3H)-one], for which, in data set [1], the “ε at λmax” value is 10800 and the λmax worked out at 286 nm. Further, the “Initial rate (autoxidation)” value in data set [2] is given as 0.0097^c μM/sec.

What is called melting point is the temperature of the solid-liquid transition.
